# Test results reported in patent publication US20160074420A1, “ORAL B12 THERAPY” (Emisphere Technologies, Inc., priority 2010, published 2016).
# Assays:
# [1] = Vitamin B12 absorption after dosing Sprague-Dawley rats (plasma vitamin B12 by RIA); type: in vivo; conditions: for AUC / Cmax / Tmax: male Sprague-Dawley rats, mean, N = 5
# Protocol: (1) 8.8 mg of vitamin B12, 35 mg of SNAC were weighed, thoroughly mixed and made into a tablet for dosing in rats; (2) 8.8 mg of vitamin B12, 35 mg of SNAC and 5 mg of capmul PG-8 (propylene glycol monocaprylate) were weighed, thoroughly mixed and made into a tablet; (3) 8.8 mg of vitamin B12, 35 mg of SNAC and 0.9 mg of povidone were weighed, thoroughly mixed and made into a tablet. Each of the […] processes was repeated to produce more tablets.
# Male Sprague-Dawley rats (325-350 g) were dosed with vitamin B12 intravenously (0.5 mg/kg) alone, or orally with the tablets made in Example 4 at a dose of 50 mg/kg, vitamin B12 alone or in combination with SNAC at 200 mg/kg. Blood samples were collected at 0, 3, 10, 20, 30, 60, 120, 240 and 360 minutes post dosing. Plasma samples were analyzed for vitamin B12 by RIA. The model independent pharmacokinetic (PK) metrics obtained following administration of the vitamin B12/SNAC combination were compared to those obtained following administration of vitamin B12 alone.
# [2] = Open label randomized study: serum cobalamin (B12) levels in subjects with mild vitamin B12 deficiency; type: in vivo, human; conditions: for Cobalamin Responder (%): number of subjects (%) with cobalamin >=350 pg/mL; for Cobalamin Responder (%) / Cobalamin Non-responder (%): ITT; for Cobalamin Non-responder (%): number of subjects (%); for mean (SD) percent change in cobalamin levels: serum
# Protocol: In this study, the efficacy and safety of the oral vitamin B12 formulation (1 mg) of the present invention and intramuscular (IM) cyanocobalamin (1 mg) were evaluated in subjects with mild vitamin B12 deficiency.
# (§1) This was an open-label, randomized 60-day study, with a 30-day extension, conducted in B12 deficient subjects. Subjects were assigned to a treatment according to a randomization schedule prepared by a statistician at the start of the study. The randomization scheme was stratified such that a balanced number of males and females were assigned to each treatment group. Subjects were randomized to receive either a 1000 μg oral tablet, administered once daily for 90 days or 1000 μg cyanocobalamin, administered IM on Days 1, 3, 7, 10, 14, 21, 30, 60 and 90.
# (§2) A single tablet was self-administered in the fasted state and at least one hour prior to the morning meal with 50 mL water. IM study drug administration was performed by study personnel, in the research clinic, in the morning, in the fasted state and at least 1 hour prior to the morning meal on study Days 1, 3, 7, 10, 14, 21, 30, 60 and 90. For subjects assigned to receive tablets, treatment compliance was based on subject diary entries. Blood samples for pharmacodynamic assessments (efficacy variables) were collected from all subjects at baseline prior to dosing (Day 1), and on Days 15, 31, 61 and 91. Sample collection was carried out approximately 24 hours after the last dose administration, prior to that day's dose administration, and in the fasting state.
# (§3) Serum cobalamin (B12) levels were determined by a validated microparticle enzyme immunoassay (MEIA) detection method with a calibration range of 100-2000 pg/mL. Sample dilution procedures were validated up to 4-fold dilution. Serum MMA levels were determined by a validated LC/MS/MS method with a calibration range of 5-200 ng/mL. Plasma HC levels were determined by a validated fluorescence polarization immunoassay (FIPA) detection method with a calibration range of 2.5-50 μmol/L; and plasma holotranscobalamin (active B12) levels were determined using a validated MEIA method, with a calibration range of 8-128 pmol/L. Sample dilution procedures were validated up to 32-fold dilution.
# (§4) The primary efficacy variable was serum cobalamin levels on Day 61. The primary efficacy outcome compared the proportion of subjects in each treatment group whose cobalamin levels were normalized (≧350 pg/mL) on Day 61. The secondary efficacy variables were serum cobalamin levels on Day 91, serum MMA levels on Day 61 and Day 91 and, plasma total HC levels on Day 61 and Day 91.
# (§5) The secondary efficacy outcomes were: comparison of the proportion of subjects in each treatment group whose cobalamin levels were normalized (≧350 pg/mL) on Day 91; comparison of the mean percent change from baseline in serum cobalamin levels among subjects in each treatment group on Day 61 and Day 91; comparison of the mean percent change from baseline in serum MMA levels among subjects in each treatment group on Day 61 and Day 91; comparison of the mean percent change from baseline in total plasma HC among subjects in each treatment group on Day 61 and Day 91; comparison of the mean first time to normalization of serum cobalamin (≧350 pg/mL) among subjects in each treatment group on Day 61 and Day 91. Exploratory efficacy variables and outcomes were: plasma holotranscobalamin levels on Day 61 and Day 91, measured by: comparison of the proportion of subjects in each treatment group whose holotranscobalamin levels were normalized (≧40 pmol/L) on Day 61 and Day 91; the relationship between cobalamin and holotranscobalamin levels on Day 61 and Day 91.
# The analysis of the primary efficacy outcome compared the proportion of subjects in each treatment group whose cobalamin levels were normalized (i.e., cobalamin ≧350 pg/mL) on Day 61 Visit. The number and frequency of normalized subjects was calculated. […]
# [3] = Open label randomized study: plasma holotranscobalamin (active B12) levels; type: in vivo, human; conditions: for Holotranscobalamin Responder (%): number of subjects (%) with holotranscobalamin >=40 pmol/L; for Holotranscobalamin Responder (%) / Holotranscobalamin Non-responder (%): ITT; for Holotranscobalamin Non-responder (%): number of subjects (%)
# Protocol: as §1, §2, §3, §5
# The proportion of subjects who achieved normalization of holotranscobalamin levels (≧40 pmol/L) at Day 61 and Day 91 were analyzed using the same methodology as given for the primary analysis. The relationship between cobalamin and holotranscobalamin levels at Day 61 and Day 91, and the PCFB to Day 61 and Day 91 were explored. The relationship was analyzed graphically.
# [4] = test system: methylmalonic acid (MMA); assay: Open label randomized study: serum MMA levels; type: in vivo, human; conditions: for mean (SD) percent change in MMA levels: serum
# Protocol: as §1, §2, §3, §4, §5
# (§6) Change from baseline (CFB) is defined as (X−B). Percent change from baseline (PCFB) is defined as PCFB=100(X−B)/B, where B is the baseline (pre-dose Day 1) measurement and X is the measurement at Day 61 or Day 91, as required.
# (§7) The proportion of subjects who achieved normalization of cobalamin levels (i.e., cobalamin ≧350 pg/mL) at Day 91 was to be analyzed using the same methodology as given above for the primary analysis (i.e., Day 61). […]
# [5] = test system: homocysteine (HC); assay: Open label randomized study: plasma HC levels; type: in vivo, human; conditions: for mean (SD) percent change in HC levels: plasma
# Protocol: as §1, §2, §3, §4, §5, §6, §7
# [6] = Open label randomized study: safety assessments (adverse events); type: in vivo, human; conditions: 90-day study
# Protocol: Safety assessments consisted of monitoring adverse events (AEs), hematology, chemistry and urinalysis laboratory test results, concomitant medications, vital sign assessments, ECG and physical examination findings.
# A resting 12-lead ECG was recorded at screening and at the End-of-Study visit prior to discharge from the study. The ECG parameters recorded included ventricular rate (bpm), PR interval (msec), QRS duration (msec), QT interval (msec), QTc interval (msec, Bazett's correction). A physical examination was performed at screening and at the End-of-Study visit prior to discharge from the study.
# The safety population included all randomized subjects who received at least one administration of study product and who had at least one subsequent safety assessment. Subjects are included in this group based on the actual treatment received. All safety analyses were performed on the safety population.
# [7] = cited from earlier work
# [8] = 50 mg/kg vitamin B12 PO (tablet)
# [9] = Day 1 (baseline prior to dosing)
substance,measurement,setting,value
Vitamin B12,AUC,[1]; 0.5 mg/kg IV,65.84 µg·min/mL
same,Cmax,[1]; 0.5 mg/kg IV,2150 ng/mL
same,Tmax,[1]; 0.5 mg/kg IV,4.4 min
same,AUC,[1]; [8],28.72 µg·min/mL
same,Cmax,[1]; [8],140 ng/mL
same,Tmax,[1]; [8],52 min
same,Mean Bioavailability,"[1]; 50 mg/kg vitamin B12 PO versus 0.5 mg/kg IV, rats",0.42%
cyanocobalamin [IM B12],"Total B12, Mean",[2]; [9],369 pg/mL
same,"Total B12, Mean",[2]; Day 15,2434 pg/mL
same,Cobalamin Responder (%),[2]; Day 15,26 (100.0) %
same,Cobalamin Non-responder (%),[2]; Day 15,0 (0.0) %
same,"Total B12, Mean",[2]; Day 61,2258 pg/mL
same,mean (SD) percent change in cobalamin levels,"[2]; Day 61, change from baseline",714.6 (732.11) percent
same,Cobalamin Responder (%),[2]; Day 61,26 (100.0) %
same,Cobalamin Non-responder (%),[2]; Day 61,0 (0.0) %
same,"Total B12, Mean",[2]; Day 91,2057 ± 935 pg/mL
same,mean (SD) percent change in cobalamin levels,"[2]; Day 91, change from baseline",608.9 (446.68) percent
same,"Total B12, Mean","[2]; Day 91, listed as IM Treatment Group",2057 pg/mL
same,Cobalamin Responder (%),[2]; Day 91,26 (100.0) %
same,Cobalamin Non-responder (%),[2]; Day 91,0 (0.0) %
same,"HTC, Mean",[3]; [9],34.32 pmol/L
same,"HTC, Mean",[3]; Day 15,899 pmol/L
same,Holotranscobalamin Responder (%),[3]; Day 15,26 (100.0) %
same,Holotranscobalamin Non-responder (%),[3]; Day 15,0 (0.0) %
same,"HTC, Mean",[3]; Day 61,739 pmol/L
same,Holotranscobalamin Responder (%),[3]; Day 61,26 (100.0) %
same,Holotranscobalamin Non-responder (%),[3]; Day 61,0 (0.0) %
same,"HTC, Mean",[3]; Day 91,877 pmol/L
same,Holotranscobalamin Responder (%),[3]; Day 91,26 (100.0) %
same,Holotranscobalamin Non-responder (%),[3]; Day 91,0 (0.0) %
same,"MMA, Mean",[4]; [9],232 nmol/L
same,"MMA, Mean",[4]; Day 15,128 nmol/L
same,"MMA, Mean",[4]; Day 61,148 nmol/L
same,mean (SD) percent change in MMA levels,"[4]; Day 61, change from baseline",−28.17 (24.754) percent
same,"MMA, Mean",[4]; Day 91,149 nmol/L
same,mean (SD) percent change in MMA levels,"[4]; Day 91, change from baseline",−26.58 (25.643) percent
same,"Homocysteine, Mean",[5]; [9],13 µmol/L
same,"Homocysteine, Mean",[5]; Day 15,10 µmol/L
same,"Homocysteine, Mean",[5]; Day 61,11 µmol/L
same,mean (SD) percent change in HC levels,"[5]; Day 61, change from baseline",−17.49 (24.099) percent
same,"Homocysteine, Mean",[5]; Day 91,12 µmol/L
same,mean (SD) percent change in HC levels,"[5]; Day 91, change from baseline",−8.805 (28.5406) percent
same,subjects reported at least one AE,[6],57.7%
same,subjects reported serious adverse events (SAEs),[6],11.5%
same,Subjects who discontinued because of an AE,[6]; safety population,0 (0)^ n (%)
same,Subjects with AEs,[6]; safety population,15 (57.7) n (%)
same,Subjects with SAEs,[6]; safety population,3 (11.5) n (%)
same,Subjects with TEAEs,[6]; safety population,15 (57.7) n (%)
cyanocobalamin [Oral cyanocobalamin],B12 levels increased by a mean value,"[7]; 1000 μg/day oral, 1 week, in 17 of 20 elderly patients (Kaltenbach et al.)",0.23 µg/L
same,patients normalized (serum B12 levels),[7]; 2.5 year study (Andres et al.),95%
same,patients achieved normal serum B12 levels,[7]; 3 month studies (Andres et al.),80-90%
same,patients with clinical improvements,[7]; Andres et al.,20-30%
